Measurements taken from US20170253607A1, “LONG-ACTING HIV PROTEASE INHIBITOR” (Shionogi & Co., Ltd., priority 2014, published 2017).

Tests used:
HIV-1 PR = HIV-1 PR (Human immunodeficiency virus type 1 group M subtype B, UniProt P04585); assay: HIV-protease inhibitory activity assay (FRET peptide substrate); format: biochemical; settings: Test Example 1
How it was run: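 HIV-1 PR (0.83 ng) preincubated with compounds 20 min at room temperature in 0.1 mol/L NaAc, 0.5 mol/L NaCl, 1 mmol/L EDTA, 1 mmol/L DTT, 0.05% Tween 20, pH 4.8. Cleavage of HiLyte Fluor 488/QXL 520 FRET peptide (2 μmol/L) read after 60 minutes at 485/535 nm; IC50 from four-parameter logistic fit.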

[1] = Protein binding test (equilibrium dialysis, unbound ratio fu in serum); format: in vitro ADME; settings: rat serum, equilibrium dialysis 24 hours, 37° C., 2 μg/mL
Method: Assay condition: Evaluation method; Equilibrium dialysis method, Reaction time; 24 hours, Reaction temperature; 37° C., Assay concentration; 2 μg/mL A solution of the compound was added to each serum and mixed to prepare the serum samples with above concentration. The serum sample was put into one side of an equilibrium dialysis apparatus with dialysis membrane and phosphate buffered saline (PBS) was also put to another side of the apparatus. The apparatus was incubated at 37° C. for 24 hours. After incubation, the serum and PBS samples were collected and the compound concentrations in both samples were measured by LC/MS/MS. Fu was calculated by dividing the concentration in PBS by the concentration in the serum.

[2] = Evaluation of total body clearance (CLtot), intravenous administration; format: in vivo, Sprague-Dawley (SD); settings: rat (SD), intravenous administration 0.5-10 mg/kg; CLtot = dose/AUC
How it was run: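 Plasma levels quantified by LC/MS/MS after intravenous tail-vein dosing (0.5-10 mg/kg, compound-dependent; n=2-3). AUC from pharmacokinetic analysis; total clearance calculated as dose/AUC.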

Compound	IC50 (HIV-1 PR)	rat_fu [1]	rat_CLt [2]
COc1ccc(S(=O)(=O)N(CC2CCCC2)CC(O)C(Cc2ccc(OCc3ccccc3-n3nc4c(c3C(=O)O)CC(C(F)(F)F)CC4)cc2)NC(=O)OC2COC3(C)OCCC23)cc1 (stereo not drawn) [Compound I-140]	1.42 nM	<0.1%	0.111 mL/min/kg
CC1(C)CCc2sc(-c3ccccc3COc3ccc(CC(NC(=O)OC4COC5(C)OCCC45)C(O)CN(CC(F)F)S(=O)(=O)c4ccc5ncsc5c4)cc3)c(C(=O)O)c2C1 (stereo not drawn) [Compound I-147]	1.01 nM	<0.1%	1.68 mL/min/kg
COc1ccc(S(=O)(=O)N(CC(C)C)CC(O)C(Cc2ccc(N3CC(C)C(Oc4ccccc4-c4sc5c(c4C(=O)O)CC(C)(C)CC5)C3)cc2)NC(=O)OC2COC3(C)OCCC23)cc1 (stereo not drawn) [Compound I-406]	1.89 nM	<0.1%	4.61 mL/min/kg
COc1ccc(S(=O)(=O)N(CC(C)C)CC(O)C(Cc2ccc(NCc3ccc(OC)cc3-c3sc4c(c3C(=O)O)CC(C)(C)CC4)cc2)NC(=O)OC2COC3(C)OCCC23)cc1 (stereo not drawn) [Compound I-274]	2.11 nM	<0.1%	0.659 mL/min/kg
COc1ccc(S(=O)(=O)N(CC2CCC(=O)N2)CC(O)C(Cc2ccc(OCc3ccccc3-c3sc4c(c3C(=O)O)CC(C)(C)CC4)cc2)NC(=O)OC2COC3(C)OCCC23)cc1 (stereo not drawn) [Compound I-148]	1.16 nM	<0.1%	2.5 mL/min/kg
COc1ccc(S(=O)(=O)N(CC(C)C)CC(O)C(Cc2ccc(N(C)Cc3cc(C(F)(F)F)ccc3-n3nc4c(c3C(=O)O)CC(C)(C)CC4)cc2)NC(=O)OC2COC3(C)OCCC23)cc1 (stereo not drawn) [Compound I-379]	4.42 nM	<0.1%	0.173 mL/min/kg
CC(C)CN(CC(O)C(Cc1ccccc1)NC(=O)OC1COC2(C)OCCC12)S(=O)(=O)c1ccc2nc(NCc3ccc(-c4sc5c(c4C(=O)O)CC(C)(C)CC5)cc3)sc2c1 (stereo not drawn) [Compound I-798]	0.99 nM	<0.1%	4.54 mL/min/kg
COc1ccc(S(=O)(=O)N(CC(C)C)CC(O)C(Cc2ccccc2)NC(=O)OC2COC3(COC(=O)NCc4sc5c(c4C(=O)O)CC(C)(C)CC5)OCCC23)cc1 (stereo not drawn) [Compound I-780]	1.64 nM	<0.1%	2.23 mL/min/kg
COc1ccc(S(=O)(=O)N(CC(C)C)CC(O)C(Cc2ccc(NCC3(O)CCCC3c3sc4c(c3C(=O)O)CC(C)(C)CC4)cc2)NC(=O)OC2COC3(C)OCCC23)cc1 (stereo not drawn) [Compound I-334]	1.91 nM	<0.1%	3.87 mL/min/kg
COc1ccc(S(=O)(=O)N(CC(C)C)CC(O)C(Cc2ccc(NCCc3ccccc3-c3sc4c(c3C(=O)O)CC(C)(C)CC4)cc2)NC(=O)OC2COC3(C)OCCC23)cc1 (stereo not drawn) [Compound I-262]	3.95 nM	<0.1%	0.343 mL/min/kg
COc1ccc(S(=O)(=O)N(CC(C)C)CC(O)C(Cc2ccc(NC3Cc4cccc(-c5sc6c(c5C(=O)O)CC(C)(C)CC6)c4C3)cc2)NC(=O)OC2COC3(C)OCCC23)cc1 (stereo not drawn) [Compound I-242]	3.11 nM	<0.1%	0.408 mL/min/kg
COc1ccc(S(=O)(=O)N(CC(C)C)CC(O)C(Cc2ccc(Oc3ccc(C)c(-c4sc5c(c4C(=O)O)CC(C)(C)CC5)c3)cc2)NC(=O)OC2COC3(C)OCCC23)cc1 (stereo not drawn) [Compound I-134]	2.04 nM	<0.1%	3.92 mL/min/kg
COc1ccc(S(=O)(=O)N(CC(C)C)CC(O)C(Cc2ccc(NCc3ccc(C)cc3-c3sc4c(c3C(=O)O)CC(C)(C)CC4)cc2)NC(=O)OC2COC3(C)OCCC23)cc1 (stereo not drawn) [Compound I-272]	2.11 nM	<0.1%	0.715 mL/min/kg
CC(C)CN(CC(O)C(Cc1ccc(CCc2sc3c(c2C(=O)O)CC(C)(C)CC3)cc1)NC(=O)OC1COC2(C)OCCC12)S(=O)(=O)c1ccc2c(c1)OCO2 (stereo not drawn) [Compound I-106]	2.57 nM	<0.1%	3.49 mL/min/kg
COc1ccc(S(=O)(=O)N(CC(C)C)CC(O)C(Cc2ccc(NCC3=C(c4sc5c(c4C(=O)O)CC(C)(C)CC5)CCCC3)cc2)NC(=O)OC2COC3(C)OCCC23)cc1 (stereo not drawn) [Compound I-231]	3.91 nM	<0.1%	1.02 mL/min/kg
COc1ccc(S(=O)(=O)N(CC(C)C)C[C@@H](O)[C@H](Cc2ccc(OCc3ccccc3-c3sc4c(c3C(=O)O)CC(C)(C)CC4)cc2)NC(=O)[C@H](CC(N)=O)NC(=O)c2ccc3ccccc3n2)cc1 [Compound I-30]	3.67 nM	<0.1%	1.52 mL/min/kg

Compound	IC50 (HIV-1 PR)	rat_fu [1]	rat_CLt [2]
COc1ccc(S(=O)(=O)N(CC(C)C)CC(O)C(Cc2ccc(N3CCC(Oc4ccccc4-c4sc5c(c4C(=O)O)CC(C)(C)CC5)C3)cc2)NC(=O)OC2COC3(C)OCCC23)cc1 (stereo not drawn) [Compound I-234]	3.5 nM	<0.1%	1.49 mL/min/kg
COc1ccc(S(=O)(=O)N(CC(C)C)CC(O)C(Cc2ccc(OCc3ccccc3-c3ccc4c(c3)C(=O)C(c3ccc(F)cc3)C4=O)cc2)NC(=O)OC2COC3OCCC23)cc1 (stereo not drawn) [Compound I-841]	2.21 nM	<0.1%	2.38 mL/min/kg
COc1ccc(S(=O)(=O)N(CC(C)C)CC(O)C(Cc2ccc(NCc3cccc(F)c3-c3sc4c(c3C(=O)O)CC(C)(C)CC4)cc2)NC(=O)OC2COC3(C)OCCC23)cc1 (stereo not drawn) [Compound I-277]	1.94 nM	<0.1%	0.512 mL/min/kg
COc1ccc(S(=O)(=O)N(CC(C)C)CC(O)C(Cc2ccc(OCc3ccccc3-c3sc4c(c3C(=O)O)CC(C)(C)CC4)cc2)NC(=O)OC2COC3OCCC23)cc1 (stereo not drawn) [Compound I-826]	1.18 nM	<0.1%	0.823 mL/min/kg
COc1ccc(S(=O)(=O)N(CC(C)C)CC(O)C(Cc2ccc(NCc3cc(C#N)ccc3-c3sc4c(c3C(=O)O)CC(C)(C)CC4)cc2)NC(=O)OC2COC3(C)OCCC23)cc1 (stereo not drawn) [Compound I-256]	2.82 nM	<0.1%	3.83 mL/min/kg
Cc1cc(OCCN(CC(O)C(Cc2ccccc2)NC(=O)OC2COC3(C)OCCC23)S(=O)(=O)c2ccc3ncsc3c2)ccc1-c1sc2c(c1C(=O)O)CC(C)(C)CC2 (stereo not drawn) [Compound I-166]	8.83 nM	<0.1%	0.194 mL/min/kg
COc1ccc(S(=O)(=O)N(CC(C)C)CC(O)C(Cc2ccc(NCC3=C(c4sc5c(c4C(=O)O)CC(C)(C)CC5)CCOC3)cc2)NC(=O)OC2COC3(C)OCCC23)cc1 (stereo not drawn) [Compound I-362]	3.07 nM	<0.1%	4.62 mL/min/kg
COc1ccc(S(=O)(=O)N(CC(C)C)CC(O)C(Cc2ccc(OC3CN(c4cc(C(F)(F)F)ccc4-c4sc5c(c4C(=O)O)CC(C)(C)CC5)C3)cc2)NC(=O)OC2COC3(C)OCCC23)cc1 (stereo not drawn) [Compound I-354]	44.2 nM	<0.1%	0.0682 mL/min/kg
COc1ccc(S(=O)(=O)N(CC(C)C)CC(O)C(Cc2ccc(NCc3cc(C(F)(F)F)ccc3-n3nc4c(c3C(=O)O)CC(C)(C)CC4)cc2)NC(=O)OC2COC3(C)OCCC23)cc1 (stereo not drawn) [Compound I-378]	4.1 nM	<0.1%	0.173 mL/min/kg
COc1ccc(S(=O)(=O)N(CC(C)C)CC(O)C(Cc2ccc(OCc3ccccc3-c3sc4c(c3C(=O)O)CC(C)(C)CC4)cc2)NC(=O)OC2COC3(C)OCC(OCc4ccccc4)C23)cc1 (stereo not drawn) [Compound I-55]	7.34 nM	<0.1%	0.752 mL/min/kg
COc1ccc(S(=O)(=O)N(CC2CCCC2)CC(O)C(Cc2ccc(OCc3ccccc3-n3nc4c(c3C(=O)O)CC(C(C)(C)C)CC4)cc2)NC(=O)OC2COC3(C)OCCC23)cc1 (stereo not drawn) [Compound I-145]	0.81 nM	<0.1%	1.29 mL/min/kg
COc1ccc(S(=O)(=O)N(CC(C)C)CC(O)C(Cc2ccc(CN(C)c3ccc(-c4sc5c(c4C(=O)O)CC(C)(C)CC5)cc3)cc2)NC(=O)OC2COC3(C)OCCC23)cc1 (stereo not drawn) [Compound I-265]	5.07 nM	<0.1%	4.01 mL/min/kg
COc1ccc(S(=O)(=O)N(CC2CCCC2)CC(O)C(Cc2ccc(OCc3cc(C(F)(F)F)ccc3-c3nc4n(c3C(=O)O)CCCC4)cc2)NC(=O)OC2COC3(C)OCCC23)cc1 (stereo not drawn) [Compound I-205]	2.03 nM	<0.1%	1.68 mL/min/kg
COC(=O)NC(C(=O)NC(Cc1ccc(-c2sc3c(c2C(=O)O)CC(C)(C)CC3)cc1)C(O)CC(Cc1ccccc1F)C(=O)NC1c2cc(F)cc(Cl)c2OCC1O)C(C)(C)C (stereo not drawn) [Compound I-903]	2.23 nM	<0.1%	0.0436 mL/min/kg
COc1ccc(S(=O)(=O)N(CC(C)C)CC(O)C(Cc2ccc(NC3CCN(c4ccccc4-c4sc5c(c4C(=O)O)CC(C)(C)CC5)C3)cc2)NC(=O)OC2COC3(C)OCCC23)cc1 (stereo not drawn) [Compound I-238]	2.52 nM	<0.1%	3.05 mL/min/kg
